Test results reported in patent publication US20220378763A1, “COMPOUND FOR TREATMENT OF ACUTE INFLAMMATION IN THE MYOCARDIUM” (CALPROTECT AB, priority 2019, published 2022).

Key:
[1] = tested on: C57BL/6 mice with MI induced by permanent coronary artery ligation; assay: Flow cytometry of myeloid cells and BrdU incorporation on day 2 post-MI; format: in vivo, mouse
Method: Immune cells from blood, spleen, heart and bone-marrow were collected at 2 or 7 days post-MI, and analysed by flow-cytometry. Mice were anesthetized by intraperitoneal injection of a mixture of xylazine (10 mg/kg) and ketamine (100 mg/kg). After 10 minutes, blood was collected by cardiac punction. Thereafter, the spleen was removed and the heart was perfused with 5 ml ice-cold PBS. Perfused hearts were excised and collected into tubes with PBS and kept on ice. Femurs and tibias from each mouse were used to obtain whole bone marrow for analysis. Blood was stained with fluorochrome-labelled antibodies against mouse monocyte and neutrophil markers diluted in MACS buffer (PBS, 10% FCS and 0.5% BSA), followed by treatment with erythrocyte lysis buffer, washing and analysis. Spleens were mashed trough a cell strainer in ice-cold PBS. Hearts were cut into small pieces and placed into tubes containing 2.5 ml digestion cocktail (Collagenase I, 450 U/ml; Collagenase XI, 125 U/ml; DNAase I, 60 U/ml; Hyaluronidase type 1-5, 60 U/ml diluted in PBS containing Ca and Mg) incubated for 1 h at 37° C. with shaking at 220 rpm. Bone marrow was flushed from femur and tibia using ice-cold PBS. Cell suspensions from spleen, heart and bone marrow were filtered through a 40 um cell strainer (BD), treated with erythrocyte lysis buffer, washed and stained. For intracellular staining, cells were fixed, permeabilized and stained. Cell populations were analyzed by flow cytometry in a Gallios Flow Cytometer (Backman Coulter), and the results were analyzed using FlowJo (FlowJo®, LLC; Tree Star). The following anti-mouse antibodies were used for the flow cytometric analysis: anti-CD45 (30-F11), anti-CD11b (M1/70), anti-Ly6C (HK1.4), anti-CD115 (AFS98), anti-Ly6G (1A8), anti-F4/80 (BM8), anti-CCR2 (475301), anti-Ter119 (TER119), anti-Gr1 (RB6-8C5), anti-CD45R/B220 (RA3-6B2), anti-CD3ξ (145-2C11), anti-NK1.1 (PK136), anti-Ly6A/E (Sca-1) (E13-1617), anti-CD117 (c-kit) (2B8), anti-CD48 (HM48.1), anti-CD150/SLAM (TC15-12F12.2), anti-CD16/32 (93), anti-CD34 (MEC14.7) (all from BioLegend, San Diego, Calif., USA); anti-MerTK (DSSMMER) and anti-Nur77 (12.14) (eBioscience).
Mice were injected intraperitoneally with 1 mg BrdU 24 hours prior to organ harvest. Intracellular BrdU staining was performed in hematopoietic stem cells collected from the bone marrow using BrdU flow kits (BD Pharmigen™), according to the manufacturer instructions. BrdU expression was analysed by flow cytometry.
Neutrophilia and monocytosis, elevated circulating numbers of neutrophils and monocytes, have been associated with an adverse prognosis in MI patients. We studied the effects of S100A9 blockade on myeloid cell populations in blood, heart, and myeloid organs on day 2 post-MI, at the peak of the acute inflammatory period. The gating strategy is described in FIG. 8.

[2] = tested on: Nur77 in bone marrow-derived monocytes; assay: Nur77 expression in cultured bone marrow-derived monocytes stimulated with S100A9; format: cell-based, mouse; settings: S100A9 20 μg/mL, ABR-238901 100 μM, 24 h
Method: To obtain bone marrow-derived monocytes, bone marrow cells were isolated from femur and tibia of wild-type mice (C57BL/6NRJ) (n=3). Cells were cultured in RPMI-1640 (GIBCO Invitrogen) with 100 U/ml penicillin/streptomycin (GIBCO Invitrogen), 10% heat-inactivated fetal calf serum (FCS; GIBCO Invitrogen) and 20 ng/ml M-CSF (Peprotech) for 3 days. On day 3, unattached cells were collected, and the monocyte phenotype was confirmed by flow cytometry as CD45^+CD11b^+CD115^+ cells. The cells were re-suspended in medium and seeded at a density of 1×10^5 cells/ml. Extracellular S100A9 (20 μg/mL) with or without the S100A9 antagonist ABR-238901 at a concentration of 100 μM were incubated in the presence of 10 μM ZnCl2 (Sigma) and 2 mM CaCl2 for 15 minutes and added to the monocyte culture. Recombinant human endotoxin-free S100A9 protein was provided by Active Biotech AB. Following 24 h stimulation, intracellular Nur77 expression was analysed by flow cytometry.

[3] = tested on: Nur77 response elements NBRE and NurRE in RAW264.7 macrophages; assay: Nur77 activity luciferase reporter assay in RAW264.7 macrophages stimulated with S100A9; format: cell-based, mouse; settings: S100A9 20 μg/mL, ABR-238901 100 μM, 16 hours
Method: Low-passage RAW264.7 mouse macrophages (ATCC #TIB-71) were seeded at 125.000 cells/mL in DMEM medium containing 2 mM L-glutamine (Gibco), 10% Fetal Calf Serum (Gibco), and 1% penicillin/streptomycin (Invitrogen). The next day, cells were transfected with pXP1-NurRE-fluc or pGL2-4xNBRE-fluc firefly luciferase Nur77 reporter constructs using Lipofectamine LTX with PLUS reagent (Invitrogen) according to manufacturer's instructions. pRluc-N3, which constitutively expresses Renilla luciferase from the CMV promoter, was co-transfected as an internal control to verify transfection efficiency. Extracellular S100A9 (20 μg/mL) was incubated in the presence of 10 μM ZnCl2 (Sigma) for 15 minutes with or without 100 μM of ABR-238901, and added to the cells 4 hours after transfection. After 16 hours of stimulation, the cells were washed and firefly and Renilla luciferase activities were determined using the Dual-Luciferase Reporter Assay System and a GloMax luminescent plate reader (both Promega).

[4] = tested on: C57BL/6 mice with sepsis induced by bacterial lipopolysaccharide; assay: LPS-induced sepsis: weight loss; format: in vivo, mouse
Method: General animal care, induction of sepsis and treatments were performed as described under Example 7. We included 5 mice per treatment group. After induction of sepsis, the mice were monitored for 7 days (FIG. 15A). To evaluate bodyweight, mice were weighed daily at the same time points during the course of the experiment.

For `COc1ncc(S(=O)(=O)Nc2cncc(Cl)c2O)cc1Br` [ABR-238901, 5-bromo-N-(5-chloro-4-hydroxypyridin-3-yl)-6-methoxypyridine-3-sulfonamide], the “Number of Ly6Chi monocytes in the bone marrow” value ([1]; 2 days treatment post-MI) was “increased”, the “Numbers of proliferating BrdU+ Lin−Sca+Kit+CD150+CD48− hematopoietic stem cells” value ([1]; bone marrow, 24 h after BrdU) was “reduced” and the “Numbers of macrophages in the heart” value ([1]; day 2 post-MI) was “lower”. The “Numbers of monocytes in the bone marrow” value ([1]; day 2 post-MI) was “significantly higher”, the “Numbers of monocytes in the spleen” value ([1]; day 2 post-MI) was “did not have a significant effect” and the “Numbers of neutrophils in the spleen” value ([1]; day 2 post-MI) was “did not have a significant effect”. The “Neutrophil counts in the bone marrow” value ([1]; day 2 post-MI, vs MI control) was “highly increased”, the “Numbers of neutrophils in blood” value ([1]; day 2 post-MI, vs MI control) was “significantly lowered” and the “Numbers of neutrophils in myocardium” value ([1]; day 2 post-MI, vs MI control) was “significantly lowered”. The “S100A9-induced increase of Nur77 expression” value [2] was “inhibited”, the “S100A9-induced increase of Nur77 activity (NBRE and NurRE luciferase reporters)” value [3] was “inhibited” and the “Decrease in body weight” value ([4]; day 1) was 5.2%. For the same compound, the “Decrease in body weight” value ([4]; day 2) was 11.7%, the “Decrease in body weight” value ([4]; day 3) was 8.8% and the “Decrease in body weight” value ([4]; day 4) was 4%.
